# Laboratory results reported in PubChem BioAssay AID2060893 (Molecular Pharmacology Branch, DTP, NCI, 2025).
# System: K86415-001-R-J1-PDC complex spheroids, viability
# Assay: Anticancer human tumor K86415-001-R-J1-PDC patient-derived lung adenocarcinoma cell line growth inhibition [RAS]
# Conditions: for IC50: curve of first compound; for viability, T/C: stronger effect = lower value
# Text: RAS pathway inhibitors in Combinations in Complex Spheroids
# A high-throughput screen of multi-cell type tumor spheroids was designed to identify active combinations of RAS pathway inhibitors and targeted small molecules. Complex spheroids include a stromal component modeled by human endothelial cells (HUVEC) and fibroblasts modeled by human mesenchymal stem cells (MSCs). The concentration ranges selected for each drug and investigational agent were based upon clinically achievable concentrations if the clinical Cmax of the agent was known.
# Compounds. The drugs and investigational agents: abemaciclib (NSC768073), cobimetinib (NSC768068), divarasib (GDC6063, NSC841802), docetaxel (NSC628503), GDC-1971 (RLY-1971, NSC841576), gemcitabine (NSC613327), inavolisib (NSC800729), ipatasertib (NSC767898), KB-0742 (NSC834161), MRTX-1133 (NSC836407), osimertinib (NSC779217), RMC-4630 (NSC839698), RMC-6236 (NSC851965), RMC-6291 (NSC852671), Ro-3306 (NSC812927), sapanisertib (NSC764658), SN-38 (NSC673596), staurosporine (NSC755774), SY5609 (NSC837396), and tovorafenib (DAY101, NSC766906), were obtained from the National Cancer Institute (NCI) Developmental Therapeutics Program Chemical Repository. The FDA-approved anticancer drug set is available from the NCI Developmental Therapeutics Program. […] The stock solutions were prepared in dimethyl sulfoxide (DMSO, Sigma-Aldrich, St. Louis, MO, cat. D2650) at 800-fold the tested concentration and stored at -70 degrees C prior to their use. All drugs and investigational agents were tested over a range starting from a high concentration at or near the clinical Cmax and decreasing in half-log increments. If the clinical Cmax for an agent had not been determined, the highest concentration tested was 10 microM.
# Cell Culture. All cells were maintained in an incubator at 37 degrees C and 5% CO2 with 95% humidity. The PDC lines were cultured according to standard operating procedures established by the NCI PDMR. All PDCs were thawed and cultured in Matrigel-coated flasks prepared with a working solution of 1X Ham's F-12 nutrient mix, without supplementation (Invitrogen, Waltham, MA, cat. 11765054), 100 U/mL penicillin-streptomycin (Invitrogen, cat. 15140122), and 2.5% Matrigel (Corning Inc., Corning, NY, cat. 354248) for the first three passages. The 362531-283-R-J2-PDC and 782815-120-R-J1-PDC lines were cultured in 6C/Colon 1B media, which includes advanced DMEM/F-12 (Thermo Fisher Scientific, cat. 12634028), 10 mM HEPES (Thermo Fisher Scientific, cat. 15630080), 1X GlutaMAX supplement (Thermo Fisher Scientific, cat. 35050061), 0.1 mg/mL primocin (InvivoGen, San Diego, CA, cat. ant-pm-2), 10% defined fetal bovine serum, heat inactivated (HyClone Laboratories Inc., Logan, UT, cat. SH30070.03HI), 50% L-WRN conditioned media (ATCC, cat. CRL-3276), 1.25 mM N-Acetyl-L-cysteine (Sigma-Aldrich, cat. A9165), 10 mM nicotinamide (Sigma-Aldrich, cat. N0636), 1X B-27 supplement (Thermo Fisher Scientific, cat. 17504044), 1X N-2 supplement (Thermo Fisher Scientific, cat. 17502048), 50 ng/mL human EGF (Thermo Fisher Scientific, cat. PHG0311), and 10 microM Y-27632 dihydrochloride (Tocris Bioscience, cat. 1254). The K12877-001-R-J1-PDC line was cultured in 6I media, which includes all 6C/Colon 1B media plus 10 ng/mL human FGF-10 (PeproTech, cat. 100-26), 1 ng/mL human FGF-2 (PeproTech, cat. 100-18B), 1 µM prostaglandin E2 (Tocris Bioscience, cat. 2296), […] hydrocortisone (Sigma-Aldrich, cat. H4001), and […] bovine insulin (Sigma-Aldrich, cat. I6634). The K86415-001-R-J1-PDC line was cultured in 6D media, which includes all 6C/Colon 1B media components minus the L-WRN conditioned media. The 485176-168-R4-J1-PDC was cultured in PANC media, which includes all 6C/Colon 1B media plus 100 ng/mL human FGF-10 (PeproTech, cat. 100-26), 500 nM SB-431542 (Selleckchem, cat. S1067), and 10 nM gastrin (Tocris Bioscience, cat. 3006). […]
# [1] = second compound 0.000949 µM, first compound 0.0316 µM
# [2] = second compound 0.000949 µM, first compound 0.1 µM
# [3] = second compound 0.000949 µM, first compound 0.316 µM
# [4] = second compound 0.000949 µM, first compound 1 µM
# [5] = second compound 0.003 µM, first compound 0.0316 µM
# [6] = second compound 0.003 µM, first compound 0.1 µM
# [7] = second compound 0.003 µM, first compound 0.316 µM
# [8] = second compound 0.003 µM, first compound 1 µM
# [9] = second compound 0.00949 µM, first compound 0.0316 µM
# [10] = second compound 0.00949 µM, first compound 0.1 µM
# [11] = second compound 0.00949 µM, first compound 0.316 µM
# [12] = second compound 0.00949 µM, first compound 1 µM
# [13] = second compound 0.03 µM, first compound 0.0316 µM
# [14] = second compound 0.03 µM, first compound 0.1 µM
# [15] = second compound 0.03 µM, first compound 0.316 µM
# [16] = second compound 0.03 µM, first compound 1 µM
# [17] = second compound 0.0949 µM, first compound 0.0316 µM
# [18] = second compound 0.0949 µM, first compound 0.1 µM
# [19] = second compound 0.0949 µM, first compound 0.316 µM
# [20] = second compound 0.0949 µM, first compound 1 µM
# [21] = second compound 0.3 µM, first compound 0.0316 µM
# [22] = second compound 0.3 µM, first compound 0.1 µM
# [23] = second compound 0.3 µM, first compound 0.316 µM
# [24] = second compound 0.3 µM, first compound 1 µM
# 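Note: spheroids exposed to agents for seven days before readout.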
smiles,measurement,setting,value
C[C@@H](NC(=O)c1ncnc(N)c1Cl)c1ncc(C(=O)Nc2cc(C(F)(F)F)c(Cl)cn2)s1 + CCn1c(-c2cc(N3CCN(C)CC3)cnc2C(C)OC)c2c3cc(ccc31)-c1csc(n1)CC(NC(=O)C1CC1C)C(=O)N1CCCC(N1)C(=O)OCC(C)(C)C2,IC50,second compound 0.000949 µM,4280 nM
same,IC50,second compound 0.003 µM,< 31.6 nM
same,IC50,second compound 0.00949 µM,< 31.6 nM
same,IC50,second compound 0.03 µM,< 31.6 nM
same,IC50,second compound 0.0949 µM,< 31.6 nM
same,IC50,second compound 0.3 µM,< 31.6 nM
same,"viability, T/C",[1],58.2%
same,"viability, T/C",[2],62.2%
same,"viability, T/C",[3],53.7%
same,"viability, T/C",[4],62.2%
same,"viability, T/C","second compound 0.000949 µM, first compound 3.16 µM",57.1%
same,"viability, T/C","second compound 0.000949 µM, first compound 10 µM",29.1%
same,"viability, T/C",[5],34.8%
same,"viability, T/C",[6],27.6%
same,"viability, T/C",[7],32.1%
same,"viability, T/C",[8],38.1%
same,"viability, T/C","second compound 0.003 µM, first compound 3.16 µM",33.4%
same,"viability, T/C","second compound 0.003 µM, first compound 10 µM",21.7%
same,"viability, T/C",[9],12.9%
same,"viability, T/C",[10],11.8%
same,"viability, T/C",[11],11.9%
same,"viability, T/C",[12],16.6%
same,"viability, T/C","second compound 0.00949 µM, first compound 3.16 µM",15.4%
same,"viability, T/C","second compound 0.00949 µM, first compound 10 µM",11.6%
same,"viability, T/C",[13],6.75%
same,"viability, T/C",[14],8.74%
same,"viability, T/C",[15],8.31%
same,"viability, T/C",[16],8.07%
same,"viability, T/C","second compound 0.03 µM, first compound 3.16 µM",8.51%
same,"viability, T/C","second compound 0.03 µM, first compound 10 µM",7.57%
same,"viability, T/C",[17],5.52%
same,"viability, T/C",[18],4.87%
same,"viability, T/C",[19],4.23%
same,"viability, T/C",[20],4.04%
same,"viability, T/C","second compound 0.0949 µM, first compound 3.16 µM",4.24%
same,"viability, T/C","second compound 0.0949 µM, first compound 10 µM",4.39%
same,"viability, T/C",[21],3.5%
same,"viability, T/C",[22],3.03%
same,"viability, T/C",[23],4.17%
same,"viability, T/C",[24],3.4%
same,"viability, T/C","second compound 0.3 µM, first compound 3.16 µM",4.53%
same,"viability, T/C","second compound 0.3 µM, first compound 10 µM",4.26%
C=CC(=O)Nc1cc(Nc2nccc(-c3cn(C)c4ccccc34)n2)c(OC)cc1N(C)CCN(C)C + CCn1c(-c2cc(N3CCN(C)CC3)cnc2C(C)OC)c2c3cc(ccc31)-c1csc(n1)CC(NC(=O)C1CC1C)C(=O)N1CCCC(N1)C(=O)OCC(C)(C)C2,IC50,second compound 0.000949 µM,< 3.16 nM
same,IC50,second compound 0.003 µM,< 3.16 nM
same,IC50,second compound 0.00949 µM,< 3.16 nM
same,IC50,second compound 0.03 µM,< 3.16 nM
same,IC50,second compound 0.0949 µM,< 3.16 nM
same,IC50,second compound 0.3 µM,< 3.16 nM
same,"viability, T/C","second compound 0.000949 µM, first compound 0.00316 µM",42.7%
same,"viability, T/C","second compound 0.000949 µM, first compound 0.01 µM",48.3%
same,"viability, T/C",[1],35.9%
same,"viability, T/C",[2],38.2%
same,"viability, T/C",[3],21.3%
same,"viability, T/C",[4],12.4%
same,"viability, T/C","second compound 0.003 µM, first compound 0.00316 µM",24.9%
same,"viability, T/C","second compound 0.003 µM, first compound 0.01 µM",21.3%
same,"viability, T/C",[5],14.2%
same,"viability, T/C",[6],17%
same,"viability, T/C",[7],8.65%
same,"viability, T/C",[8],7.93%
same,"viability, T/C","second compound 0.00949 µM, first compound 0.00316 µM",17.6%
same,"viability, T/C","second compound 0.00949 µM, first compound 0.01 µM",9.97%
same,"viability, T/C",[9],7.46%
same,"viability, T/C",[10],8.25%
same,"viability, T/C",[11],4.55%
same,"viability, T/C",[12],4.52%
same,"viability, T/C","second compound 0.03 µM, first compound 0.00316 µM",7.56%
same,"viability, T/C","second compound 0.03 µM, first compound 0.01 µM",5.27%
same,"viability, T/C",[13],5.75%
same,"viability, T/C",[14],3.23%
same,"viability, T/C",[15],3.09%
same,"viability, T/C",[16],3.11%
same,"viability, T/C","second compound 0.0949 µM, first compound 0.00316 µM",3.51%
same,"viability, T/C","second compound 0.0949 µM, first compound 0.01 µM",3.84%
same,"viability, T/C",[17],2.21%
same,"viability, T/C",[18],2.65%
same,"viability, T/C",[19],3.94%
same,"viability, T/C",[20],3.24%
same,"viability, T/C","second compound 0.3 µM, first compound 0.00316 µM",2.73%
same,"viability, T/C","second compound 0.3 µM, first compound 0.01 µM",2.35%
same,"viability, T/C",[21],2.65%
same,"viability, T/C",[22],2.51%
same,"viability, T/C",[23],2.55%
same,"viability, T/C",[24],3.25%
